Results reported in publication PMC9186362, “Design and biological evaluation of substituted 5,7-dihydro-6H-indolo[2,3-c]quinolin-6-one as novel selective Haspin inhibitors” (Journal of Enzyme Inhibition and Medicinal Chemistry, 2022).

Columns and labels:
Assay in all cases: SelectScreen ZLYTE
Type in all cases: biochemical
[1] = target: PRKCG (PKC gamma) (Homo sapiens, UniProt P05129); settings: ATP Km, read-out: Percentage of inhibition
Experimental: (§1) We further evaluated the selectivity profile of compound 55 on a larger panel of kinases (SelectScreen Whole Panel, Life Technologies). The inhibition profile of 55, evaluated at 1 μM, is depicted on a dendrogram on Figure 3 where kinases inhibited by a minimum of 80% are shown. A full list of the kinases tested is shown on Table S1 in supplementary information.

[2] = target: T1, SBK1 (Homo sapiens, UniProt Q52WX2); settings: ATP Km, read-out: Percentage of inhibition
T1 construct: purchased Life Technologies (SelectScreen Whole Panel)
Experimental: as §1

[3] = target: T2, MARK2 (Homo sapiens, UniProt Q7KZI7); settings: ATP Km, read-out: Percentage of inhibition
T2 construct: purchased Life Technologies (SelectScreen Whole Panel service)
Experimental: as §1

[4] = target: T3, MAP3K8 (COT) (Homo sapiens, UniProt P41279); settings: ATP 100 µM, read-out: Percentage of inhibition
T3 construct: purchased Life Technologies (SelectScreen service)
Experimental: as §1

[5] = target: TYRO3 (RSE) (Homo sapiens, UniProt Q06418); settings: ATP Km, read-out: Percentage of inhibition
Experimental: as §1

[6] = target: T4, RET Y791F (Homo sapiens, UniProt P07949, Y791F); settings: ATP Km, read-out: Percentage of inhibition
T4 construct: purchased Life Technologies
Experimental: as §1

[7] = target: T5, SNF1LK2 (Homo sapiens, UniProt Q9H0K1); settings: ATP Km, read-out: Percentage of inhibition
T5 construct: purchased Life Technologies (SelectScreen service)
Experimental: as §1

[8] = target: CAMK2A (CaMKII alpha) (Homo sapiens, UniProt Q9UQM7); settings: ATP Km, read-out: Percentage of inhibition
Experimental: as §1

[9] = target: T6, EEF2K (Homo sapiens, UniProt O00418); settings: ATP Km, read-out: Percentage of inhibition
T6 construct: purchased Life Technologies (SelectScreen)
Experimental: as §1

[10] = target: T7, MAPK8 (JNK1) (Homo sapiens, UniProt P45983); settings: ATP 10 µM, read-out: Percentage of inhibition
T7 construct: purchased Life Technologies (SelectScreen Whole Panel service)
Experimental: as §1

[11] = target: T8, NEK2 (Homo sapiens, UniProt P51955); settings: ATP Km, read-out: Percentage of inhibition
T8 construct: purchased Life Technologies (SelectScreen Whole Panel)
Experimental: as §1

[12] = target: T9, PDGFRA D842V (Homo sapiens, UniProt P16234, D842V); settings: ATP Km, read-out: Percentage of inhibition
T9 construct: purchased Life Technologies (SelectScreen Whole Panel service)
Experimental: as §1

[13] = target: T10, PRKD1 (PKC mu) (Homo sapiens, UniProt Q15139); settings: ATP Km, read-out: Percentage of inhibition
T10 construct: purchased Life Technologies (SelectScreen Whole Panel service)
Experimental: as §1

[14] = target: T11, FGFR3 K650E (Homo sapiens, UniProt P22607, K650E); settings: ATP Km, read-out: Percentage of inhibition
T11 construct: purchased Life Technologies (SelectScreen Whole Panel service)
Experimental: as §1

[15] = target: T12, ABL1 G250E (Homo sapiens, UniProt P00519, G250E); settings: ATP Km, read-out: Percentage of inhibition
T12 construct: purchased Life Technologies (SelectScreen Whole Panel service)
Experimental: as §1

[16] = target: T13, SGKL (SGK3) (Homo sapiens, UniProt Q96BR1); settings: ATP Km, read-out: Percentage of inhibition
T13 construct: purchased Life Technologies (SelectScreen)
Experimental: as §1

[17] = target: LYN B (Homo sapiens, UniProt P07948); settings: ATP Km, read-out: Percentage of inhibition
Experimental: as §1

[18] = target: T14, CDK18/cyclin Y (Homo sapiens, UniProt Q07002); settings: ATP Km, read-out: Percentage of inhibition
T14 construct: purchased Life Technologies
Experimental: as §1

[19] = target: T15, RPS6KB2 (p70S6Kb) (Homo sapiens, UniProt Q9UBS0); settings: ATP Km, read-out: Percentage of inhibition
T15 construct: purchased Life Technologies (SelectScreen)
Experimental: as §1

[20] = target: T16, MAP2K1 (MEK1) (Homo sapiens, UniProt Q02750); settings: ATP 100 µM, read-out: Percentage of inhibition
T16 construct: purchased Life Technologies (SelectScreen Whole Panel)
Experimental: as §1

[21] = target: T17, LTK (TYK1) (Homo sapiens, UniProt P29376); settings: ATP Km, read-out: Percentage of inhibition
T17 construct: purchased Life Technologies (SelectScreen Whole Panel service)
Experimental: as §1

[22] = target: T18, RET V804E (Homo sapiens, UniProt P07949, V804E); settings: ATP Km, read-out: Percentage of inhibition
T18 construct: purchased Life Technologies (SelectScreen service)
Experimental: as §1

[23] = target: KSR2 (Homo sapiens, UniProt Q6VAB6); settings: ATP Km, read-out: Percentage of inhibition
Experimental: as §1

[24] = target: T19, CLK2 (Homo sapiens, UniProt P49760); settings: ATP Km, read-out: Percentage of inhibition
T19 construct: purchased Life Technologies
Experimental: as §1

[25] = target: T20, PKN1 (PRK1) (Homo sapiens, UniProt Q16512); settings: ATP Km, read-out: Percentage of inhibition
T20 construct: purchased Life Technologies
Experimental: as §1

[26] = target: CSF1R (FMS) (Homo sapiens, UniProt P07333); settings: ATP Km, read-out: Percentage of inhibition
Experimental: as §1

[27] = target: T21, EGFR (ErbB1) L858R (Homo sapiens, UniProt P00533, L858R); settings: ATP Km, read-out: Percentage of inhibition
T21 construct: purchased Life Technologies (SelectScreen Whole Panel)
Experimental: as §1

[28] = target: T22, EPHA5 (Homo sapiens, UniProt P54756); settings: ATP Km, read-out: Percentage of inhibition
T22 construct: purchased Life Technologies (SelectScreen Whole Panel service)
Experimental: as §1

[29] = target: T23, RAF1 (cRAF) Y340D Y341D (Homo sapiens, UniProt P04049, Y340D/Y341D); settings: ATP 100 µM, read-out: Percentage of inhibition
T23 construct: purchased Life Technologies
Experimental: as §1

[30] = target: T24, ADRBK2 (GRK3) (Homo sapiens, UniProt P35626); settings: ATP Km, read-out: Percentage of inhibition
T24 construct: purchased Life Technologies (SelectScreen Whole Panel)
Experimental: as §1

[31] = target: ERBB4 (HER4) (Homo sapiens, UniProt Q15303); settings: ATP Km, read-out: Percentage of inhibition
Experimental: as §1

[32] = target: PRKCZ (PKC zeta) (Homo sapiens, UniProt Q05513); settings: ATP Km, read-out: Percentage of inhibition
Experimental: as §1

[33] = target: T25, CSNK1E (CK1 epsilon) (Homo sapiens, UniProt P49674); settings: ATP Km, read-out: Percentage of inhibition
T25 construct: purchased Life Technologies (SelectScreen service)
Experimental: as §1

[34] = target: T26, MARK4 (Homo sapiens, UniProt Q96L34); settings: ATP Km, read-out: Percentage of inhibition
T26 construct: purchased Life Technologies
Experimental: as §1

[35] = target: T27, PDGFRA (PDGFR alpha) (Homo sapiens, UniProt P16234); settings: ATP Km, read-out: Percentage of inhibition
T27 construct: purchased Life Technologies (SelectScreen Whole Panel service)
Experimental: as §1

[36] = target: T28, FLT3 (Homo sapiens, UniProt P36888); settings: ATP Km, read-out: Percentage of inhibition
T28 construct: purchased Life Technologies
Experimental: as §1

[37] = target: T29, PLK2 (Homo sapiens, UniProt Q9NYY3); settings: ATP Km, read-out: Percentage of inhibition
T29 construct: purchased Life Technologies (SelectScreen service)
Experimental: as §1

[38] = target: MKNK1 (MNK1) (Homo sapiens, UniProt Q9BUB5); settings: ATP Km, read-out: Percentage of inhibition
Experimental: as §1

Sequence of CSF1R (FMS) (P07333 20-972): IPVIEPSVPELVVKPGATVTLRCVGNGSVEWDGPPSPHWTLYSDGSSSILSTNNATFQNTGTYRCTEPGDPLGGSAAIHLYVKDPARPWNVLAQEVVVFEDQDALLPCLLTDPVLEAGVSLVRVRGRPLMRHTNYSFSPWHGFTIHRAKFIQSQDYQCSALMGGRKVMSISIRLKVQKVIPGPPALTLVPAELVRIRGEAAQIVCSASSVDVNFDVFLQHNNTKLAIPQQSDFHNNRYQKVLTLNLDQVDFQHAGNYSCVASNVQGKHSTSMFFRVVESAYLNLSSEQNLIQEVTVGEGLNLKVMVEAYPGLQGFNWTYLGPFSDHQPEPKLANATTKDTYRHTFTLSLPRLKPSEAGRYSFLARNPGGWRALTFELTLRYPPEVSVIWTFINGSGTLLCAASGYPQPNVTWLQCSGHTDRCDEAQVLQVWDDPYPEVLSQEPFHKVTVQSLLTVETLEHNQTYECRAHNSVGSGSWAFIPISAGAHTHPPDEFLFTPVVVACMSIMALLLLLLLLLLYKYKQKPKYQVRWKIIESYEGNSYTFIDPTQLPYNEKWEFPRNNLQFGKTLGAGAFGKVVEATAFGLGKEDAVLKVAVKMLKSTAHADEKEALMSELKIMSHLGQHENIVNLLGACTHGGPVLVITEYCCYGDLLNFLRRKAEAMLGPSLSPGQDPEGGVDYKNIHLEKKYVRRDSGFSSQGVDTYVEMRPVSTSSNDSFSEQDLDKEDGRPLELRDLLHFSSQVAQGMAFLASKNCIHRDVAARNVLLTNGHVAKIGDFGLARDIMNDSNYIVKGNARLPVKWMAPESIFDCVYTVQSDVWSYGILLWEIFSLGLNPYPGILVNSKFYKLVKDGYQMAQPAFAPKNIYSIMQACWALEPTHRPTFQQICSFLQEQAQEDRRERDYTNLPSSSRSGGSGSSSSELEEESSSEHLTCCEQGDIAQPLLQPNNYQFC
Sequence of MKNK1 (MNK1) (Q9BUB5 whole entry): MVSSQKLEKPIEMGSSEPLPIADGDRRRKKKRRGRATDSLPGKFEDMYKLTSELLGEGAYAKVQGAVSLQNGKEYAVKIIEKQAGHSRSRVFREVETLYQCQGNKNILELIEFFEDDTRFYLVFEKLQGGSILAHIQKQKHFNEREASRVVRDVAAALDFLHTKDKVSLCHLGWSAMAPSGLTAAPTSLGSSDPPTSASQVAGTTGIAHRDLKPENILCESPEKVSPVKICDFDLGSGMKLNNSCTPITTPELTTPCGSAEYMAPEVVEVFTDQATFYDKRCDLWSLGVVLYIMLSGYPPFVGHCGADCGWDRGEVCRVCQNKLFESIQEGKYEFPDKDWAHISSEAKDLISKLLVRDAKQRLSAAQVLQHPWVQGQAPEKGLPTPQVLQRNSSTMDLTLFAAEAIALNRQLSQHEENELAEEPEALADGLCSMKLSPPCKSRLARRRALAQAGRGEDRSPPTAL
T19 sequence (P49760 whole entry): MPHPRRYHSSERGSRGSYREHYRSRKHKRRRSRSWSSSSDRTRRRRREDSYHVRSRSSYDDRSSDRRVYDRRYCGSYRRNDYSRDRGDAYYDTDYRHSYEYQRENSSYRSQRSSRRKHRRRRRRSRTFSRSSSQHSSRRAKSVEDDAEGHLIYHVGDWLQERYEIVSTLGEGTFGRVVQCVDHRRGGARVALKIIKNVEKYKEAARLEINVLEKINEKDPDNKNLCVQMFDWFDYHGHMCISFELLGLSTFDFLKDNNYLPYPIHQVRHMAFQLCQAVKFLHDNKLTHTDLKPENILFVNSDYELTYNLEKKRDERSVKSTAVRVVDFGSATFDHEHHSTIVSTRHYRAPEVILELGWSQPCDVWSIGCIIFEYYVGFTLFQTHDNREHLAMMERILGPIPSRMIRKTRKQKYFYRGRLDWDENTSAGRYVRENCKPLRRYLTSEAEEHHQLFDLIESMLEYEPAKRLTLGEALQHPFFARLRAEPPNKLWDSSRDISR
T14 sequence (Q07002 whole entry): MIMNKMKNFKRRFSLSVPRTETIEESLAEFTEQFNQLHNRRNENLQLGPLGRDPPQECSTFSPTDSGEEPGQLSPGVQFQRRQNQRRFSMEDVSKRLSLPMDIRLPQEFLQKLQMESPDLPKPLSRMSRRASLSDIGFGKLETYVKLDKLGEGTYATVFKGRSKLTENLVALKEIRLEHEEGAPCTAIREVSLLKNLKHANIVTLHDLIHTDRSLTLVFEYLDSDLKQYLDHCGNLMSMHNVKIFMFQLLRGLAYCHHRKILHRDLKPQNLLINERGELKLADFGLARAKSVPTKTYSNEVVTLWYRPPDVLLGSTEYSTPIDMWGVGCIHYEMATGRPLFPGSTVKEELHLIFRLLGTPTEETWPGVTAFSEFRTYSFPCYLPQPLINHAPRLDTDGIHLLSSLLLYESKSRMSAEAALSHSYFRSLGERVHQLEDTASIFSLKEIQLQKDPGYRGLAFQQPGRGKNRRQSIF
T14 sequence (Q8ND76 whole entry partner): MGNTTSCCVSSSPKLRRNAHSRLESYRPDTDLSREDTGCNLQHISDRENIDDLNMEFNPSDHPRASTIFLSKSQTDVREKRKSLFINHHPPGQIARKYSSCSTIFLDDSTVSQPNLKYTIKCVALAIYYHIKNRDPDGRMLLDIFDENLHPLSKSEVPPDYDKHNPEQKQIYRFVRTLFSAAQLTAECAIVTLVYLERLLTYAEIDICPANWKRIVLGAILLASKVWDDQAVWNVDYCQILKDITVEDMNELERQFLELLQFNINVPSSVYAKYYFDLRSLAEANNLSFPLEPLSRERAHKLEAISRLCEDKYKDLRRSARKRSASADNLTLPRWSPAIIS
T17 sequence (P29376 17-864): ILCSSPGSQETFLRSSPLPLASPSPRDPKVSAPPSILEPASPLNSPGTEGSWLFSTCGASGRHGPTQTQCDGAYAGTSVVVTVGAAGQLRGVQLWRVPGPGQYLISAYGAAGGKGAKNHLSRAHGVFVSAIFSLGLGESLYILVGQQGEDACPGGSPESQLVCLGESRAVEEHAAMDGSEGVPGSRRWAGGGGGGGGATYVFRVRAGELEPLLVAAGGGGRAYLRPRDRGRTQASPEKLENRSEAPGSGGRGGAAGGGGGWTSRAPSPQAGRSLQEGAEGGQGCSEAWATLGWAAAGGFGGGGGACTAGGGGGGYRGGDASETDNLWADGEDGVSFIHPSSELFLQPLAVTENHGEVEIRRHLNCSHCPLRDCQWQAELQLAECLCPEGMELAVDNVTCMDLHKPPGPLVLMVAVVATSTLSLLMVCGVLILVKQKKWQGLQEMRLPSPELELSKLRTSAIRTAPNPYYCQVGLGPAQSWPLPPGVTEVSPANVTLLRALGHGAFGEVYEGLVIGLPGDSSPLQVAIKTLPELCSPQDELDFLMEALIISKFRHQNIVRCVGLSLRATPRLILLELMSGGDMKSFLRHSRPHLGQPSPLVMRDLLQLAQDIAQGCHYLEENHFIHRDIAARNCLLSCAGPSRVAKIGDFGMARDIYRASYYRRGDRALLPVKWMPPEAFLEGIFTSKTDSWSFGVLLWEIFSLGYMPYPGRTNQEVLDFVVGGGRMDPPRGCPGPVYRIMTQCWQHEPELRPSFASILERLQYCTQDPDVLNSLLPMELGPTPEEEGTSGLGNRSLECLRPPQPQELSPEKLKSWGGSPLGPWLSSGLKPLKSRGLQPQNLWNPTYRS
T2 sequence (Q7KZI7 whole entry): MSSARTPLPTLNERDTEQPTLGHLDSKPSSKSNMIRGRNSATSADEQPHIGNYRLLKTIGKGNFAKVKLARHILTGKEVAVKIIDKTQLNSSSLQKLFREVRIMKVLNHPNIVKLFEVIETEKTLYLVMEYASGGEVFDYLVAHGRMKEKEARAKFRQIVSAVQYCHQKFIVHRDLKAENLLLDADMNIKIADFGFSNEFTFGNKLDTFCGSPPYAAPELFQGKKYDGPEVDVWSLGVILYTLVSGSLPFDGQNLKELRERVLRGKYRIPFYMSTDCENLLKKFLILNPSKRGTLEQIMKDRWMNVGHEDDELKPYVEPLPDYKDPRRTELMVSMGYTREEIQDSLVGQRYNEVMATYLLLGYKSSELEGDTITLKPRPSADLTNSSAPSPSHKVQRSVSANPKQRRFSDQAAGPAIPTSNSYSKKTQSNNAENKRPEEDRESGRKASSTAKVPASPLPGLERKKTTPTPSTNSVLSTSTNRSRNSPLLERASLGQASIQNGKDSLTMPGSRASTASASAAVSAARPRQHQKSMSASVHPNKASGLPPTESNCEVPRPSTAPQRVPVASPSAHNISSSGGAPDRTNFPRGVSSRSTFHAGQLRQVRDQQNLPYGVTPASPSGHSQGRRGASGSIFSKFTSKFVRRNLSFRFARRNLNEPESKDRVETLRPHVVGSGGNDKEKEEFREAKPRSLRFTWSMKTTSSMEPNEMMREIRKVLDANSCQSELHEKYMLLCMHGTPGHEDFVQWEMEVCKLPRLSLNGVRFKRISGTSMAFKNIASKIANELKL
T3 sequence (P41279 whole entry): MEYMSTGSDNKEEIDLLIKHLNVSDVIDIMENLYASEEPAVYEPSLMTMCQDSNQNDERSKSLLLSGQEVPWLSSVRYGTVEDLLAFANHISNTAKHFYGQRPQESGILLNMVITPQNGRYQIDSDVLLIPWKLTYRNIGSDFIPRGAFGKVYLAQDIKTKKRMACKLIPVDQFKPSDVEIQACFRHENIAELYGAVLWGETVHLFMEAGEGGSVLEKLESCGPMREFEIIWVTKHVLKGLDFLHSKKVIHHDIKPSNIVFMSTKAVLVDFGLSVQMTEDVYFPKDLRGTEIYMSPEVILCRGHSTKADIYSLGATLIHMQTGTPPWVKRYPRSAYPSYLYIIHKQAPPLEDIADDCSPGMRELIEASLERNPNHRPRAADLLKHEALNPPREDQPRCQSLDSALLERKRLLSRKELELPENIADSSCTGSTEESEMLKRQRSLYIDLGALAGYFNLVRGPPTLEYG

COc1ccc2[nH]c3c(=O)[nH]c4ccc(O)cc4c3c2c1 [Compound 55, 2-Hydroxy-10-methoxy-5,7-dihydro-6H-indolo[2,3-c]quinolin-6-one]
inhibition at 1 µM [1]: 14% | inhibition at 1 µM [2]: 1% | inhibition at 1 µM [3]: 12% | inhibition at 1 µM [4]: 91% | inhibition at 1 µM [5]: 60% | inhibition at 1 µM [6]: 96% | inhibition at 1 µM [7]: 24% | inhibition at 1 µM [8]: 20% | inhibition at 1 µM [9]: 7% | inhibition at 1 µM [10]: 15% | inhibition at 1 µM [11]: -11% | inhibition at 1 µM [12]: 49% | inhibition at 1 µM [13]: 45% | inhibition at 1 µM [14]: 43% | inhibition at 1 µM [15]: 48% | inhibition at 1 µM [16]: 9% | inhibition at 1 µM [17]: 67% | inhibition at 1 µM [18]: 36% | inhibition at 1 µM [19]: 8% | inhibition at 1 µM [20]: 98% | inhibition at 1 µM [21]: 16% | inhibition at 1 µM [22]: 86% | inhibition at 1 µM [23]: 7% | inhibition at 1 µM [24]: 97% | inhibition at 1 µM [25]: 4% | inhibition at 1 µM [26]: 63% | inhibition at 1 µM [27]: -1% | inhibition at 1 µM [28]: 18% | inhibition at 1 µM [29]: 94% | inhibition at 1 µM [30]: 0% | inhibition at 1 µM [31]: 20% | inhibition at 1 µM [32]: 7% | inhibition at 1 µM [33]: 73% | inhibition at 1 µM [34]: 31% | inhibition at 1 µM [35]: 43% | inhibition at 1 µM [36]: 93% | inhibition at 1 µM [37]: 74% | inhibition at 1 µM [38]: 7%
